# In patent US8288375B2, “Fungicidal bicyclic pyrazoles” (E.I. du Pont de Nemours and Company, priority 2007, dated 2012):
# Marks after values point to notes of the source that are not given here.
# What was measured:
# Type in all cases: in vivo
# [1] = test system: Erysiphe graminis f. sp. tritici; assay: Test A: wheat powdery mildew, test suspension sprayed on wheat seedlings, disease rating; settings: for pest or weed control at 200 ppm: Blumeria graminis, 192 h
# Phytophthora infestans = assay: whole plant or invertebrate; settings: for pest or weed control at 200 ppm: Phytophthora infestans, in Solanum lycopersicum, 120 h, read-out: Test J disease control rating
# Pythium aphanidermatum = assay: Test L: bluegrass pythium blight, test suspension sprayed on bluegrass seedlings, disease rating; settings: for pest or weed control at 200 ppm: Pythium aphanidermatum, 120 h;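 for all read-outs here: 200 ppm unless marked * meaning 40 ppm or ** meaning 10 ppm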
# Septoria nodorum = assay: Test D: wheat glume blotch, test suspension sprayed on wheat seedlings, disease rating; settings: for pest or weed control at 200 ppm: Parastagonospora nodorum, 216 h
# Septoria tritici = assay: Test E: wheat leaf blotch, test suspension sprayed on wheat seedlings, disease rating; settings: 200 ppm test suspension; for pest or weed control at 200 ppm: Zymoseptoria tritici, 504 h;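 for all read-outs here: 200 ppm unless marked * meaning 40 ppm or ** meaning 10 ppm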
# Fusarium graminearum = assay: whole plant or invertebrate; settings: for pest or weed control at 200 ppm: Fusarium graminearum, in Triticum aestivum, 192 h, read-out: Test C disease control rating
# [2] = test system: Puccinia recondite f sp. tritici; assay: Test B: wheat leaf rust, test suspension sprayed on wheat seedlings, disease rating;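 note: 200 ppm unless marked * meaning 40 ppm or ** meaning 10 ppm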
# [3] = 200 ppm test suspension, 100 = 100% disease control, 0 = no control
SMILES,"Test A disease control rating [1, 3]",Test J disease control rating (Phytophthora infestans; 200 ppm test suspension),Test L disease control rating (Pythium aphanidermatum; 200 ppm test suspension),Test D disease control rating (Septoria nodorum; 200 ppm test suspension),Test E disease control rating (Septoria tritici),Test A disease control rating ([1]; 40 ppm test suspension (*)),Test C disease control rating (Fusarium graminearum; 40 ppm test suspension (*)),Test B disease control rating ([2]; 40 ppm test suspension (*)),Test J disease control rating (Phytophthora infestans; 40 ppm test suspension (*)),Test L disease control rating (Pythium aphanidermatum; 40 ppm test suspension (*)),Test D disease control rating (Septoria nodorum; 40 ppm test suspension (*)),also measured
CC(C)Nc1nccc(-c2c(-c3ccc(Cl)cc3)nn3c2CCCC3)n1 [compound 21],96%,52%,76%,82%,100%,,,,,,,
CC(C)Nc1nccc(-c2c(-c3ccc(F)cc3F)nn3c2COCC3)n1 [compound 125],20%,100%,100%,89%,88%,,,,,,,Test C disease control rating (Fusarium graminearum; 200 ppm test suspension): 100%; Test B disease control rating ([2]; 200 ppm test suspension): 86%
"COCC(C)Nc1nccc(-c2c(-c3ccc(F)cc3F)nn3c2CSC3)n1 (centres unmarked) [Compound 83, 4-[2-(2,4-difluorophenyl)-4H,6H-pyrazolo[1,5-c]thiazol-3-yl]-N-(2-methoxy-1-methylethyl)-2-pyrimidinamine]",,,,,,,,,,,,"pest or weed control at 200 ppm [1, 3]: 0%; pest or weed control at 200 ppm (Fusarium graminearum): 0%; pest or weed control at 200 ppm ([2]; Puccinia, 192 h, 200 ppm test suspension): 0%; pest or weed control at 200 ppm (Phytophthora infestans): 93%; pest or weed control at 200 ppm (Pythium aphanidermatum; 200 ppm test suspension): 99%; pest or weed control at 200 ppm (Septoria nodorum; 200 ppm test suspension): 60%; pest or weed control at 200 ppm (Septoria tritici): 67%"
CC(COC(=O)CCC(=O)O)Nc1nccc(-c2c(-c3ccc(F)cc3)nn3c2CCCC3)n1 (centres unmarked) [compound 66],0%,97%,100%,0%,72%,,,,,,,Test C disease control rating (Fusarium graminearum; 200 ppm test suspension): 83%; Test B disease control rating ([2]; 200 ppm test suspension): 88%
CN(C)Nc1nccc(-c2c(-c3ccc(F)cc3)nn3c2CCCC3)n1 [compound 23],99%,71%,0%,94%,98%,,,,,,,
"C[C@@H](CO)Nc1nccc(-c2c(-c3ccccc3)nn3c2CCCC3)n1 [Compound 54, (2S)-2-[[4-(4,5,6,7-tetrahydro-2-phenylpyrazolo[1,5-c]pyridine-3-yl)-2-pyrimidinyl]amino]-1-propanol]",,,,,,0* %,95* %,98* %,99* %,100* %,60* %,
COCC(C)Nc1nccc(-c2c(-c3ccc(F)c(C)c3)nn3c2CCCC3)n1 (centres unmarked) [compound 62],,,,,,78* %,98* %,80* %,96* %,99* %,60* %,
"Fc1ccc(-c2nn3c(c2-c2ccnc(NC4CC4)n2)COCC3)cc1 [Compound 109, N-cyclopropyl-4-[2-(4-fluorophenyl)-6,7-dihydro-4H-pyrazolo[5,1-c][1,4]oxazin-3-yl]-2-pyrimidinamine]",,,,,,,,,,,,"pest or weed control at 200 ppm [1, 3]: 92%; pest or weed control at 200 ppm (Fusarium graminearum): 100%; pest or weed control at 200 ppm (Phytophthora infestans): 99%; pest or weed control at 200 ppm (Pythium aphanidermatum; 200 ppm test suspension): 100%; pest or weed control at 200 ppm (Septoria nodorum; 200 ppm test suspension): 0%; pest or weed control at 200 ppm (Septoria tritici): 100%"
C#CCNc1nccc(-c2c(-c3ccccc3)nn3c2CCCC3)n1 [compound 59],,,,,,0* %,99* %,92* %,71* %,,94* %,Test L disease control rating (Pythium aphanidermatum; 10 ppm test suspension (**)): 67** %
Cc1cc(-c2nn3c(c2-c2ccnc(NC(C)C)n2)CCCC3)ccc1F [compound 33],,,,,,0* %,98* %,77* %,95* %,97* %,94* %,
Fc1ccc(-c2nn3c(c2-c2ccnc(NC4CC4)n2)CCCC3)c(F)c1 [compound 28],94%,95%,98%,92%,96%,,,,,,,
Cc1cc(-c2nn3c(c2-c2ccnc(NC[Si](C)(C)C)n2)CCCC3)ccc1F [compound 50],,,,,,0* %,92* %,0* %,31* %,68* %,0* %,
Cc1cc(-c2nn3c(c2-c2ccnc(NC4CC4)n2)CCCC3)ccc1F [compound 56],,,,,,86* %,100* %,0* %,93* %,100* %,99* %,
OCCNc1nccc(-c2c(-c3ccc(F)cc3)nn3c2CCCC3)n1 [compound 25],96%,83%,100%,87%,97%,,,,,,,
Cc1cc(-c2nn3c(c2-c2ccnc(NC(C)CO)n2)CCCC3)ccc1F (centres unmarked) [compound 32],,,,,,0* %,0* %,74* %,98* %,99* %,0* %,
CC(C)N(O)c1nccc(-c2c(-c3ccc(F)cc3)nn3c2CS(=O)(=O)CC3)n1 [compound 115],,,,,,0* %,0* %,63* %,73* %,,69* %,
COCC(C)Nc1nccc(-c2c(-c3ccccc3)nn3c2CCCC3)n1 (centres unmarked) [compound 53],,,,,,0* %,99* %,98* %,99* %,100* %,84* %,
C#CCNc1nccc(-c2c(-c3ccc(F)cc3)nn3c2CCCC3)n1 [compound 58],,,,,,0* %,100* %,0* %,26* %,62* %,82* %,
C[Si](C)(C)CNc1nccc(-c2c(-c3ccccc3)nn3c2CCCC3)n1 [compound 55],,,,,,0* %,99* %,91* %,17* %,0* %,44* %,
Clc1ccc(-c2nn3c(c2-c2ccnc(NC4CC4)n2)CCCC3)cc1 [compound 22],50%,83%,77%,87%,94%,,,,,,,
"CC(C)Nc1nccc(-c2c(-c3ccccc3)nn3c2CCCC3)n1 [Compound 26, N-(1-methylethyl)-4-(4,5,6,7-tetrahydro-2-phenylpyrazolo[1,5-a]pyridin-3-yl)-2-pyrimidinamine]",,,,,,,,,,,,"pest or weed control at 200 ppm [1, 3]: 91%; pest or weed control at 200 ppm (Phytophthora infestans): 91%; pest or weed control at 200 ppm (Pythium aphanidermatum; 200 ppm test suspension): 100%; pest or weed control at 200 ppm (Septoria nodorum; 200 ppm test suspension): 99%; pest or weed control at 200 ppm (Septoria tritici): 96%"
C[C@H](CO)Nc1nccc(-c2c(-c3ccc(F)cc3)nn3c2CCCC3)n1 [compound 57],,,,,,0* %,0* %,86* %,99* %,100* %,0* %,
